# Source: patent US20190022220A1, “LIGHT-ACTIVATED ANCHORING OF THERAPEUTIC FACTORS TO TISSUES” (The Board of Trustees of the Leland Stanford Junior …, priority 2016, published 2019)
# Entries after “also recorded” stand apart in the source; their conditions may differ.
# Columns and labels:
# [1] = tested on: human mesenchymal stem cells (hMSCs); experiment: Live-dead assay of hMSCs encapsulated in collagen gels formed with riboflavin and blue light; type: cell-based; settings: 72 hours; riboflavin 0.25 mM or less; 20 sec blue light at 100 mW/cm^2; cells in collagen gel
# From the text: A major clinical challenge is the delivery of cells, particularly stem cells, to an diseased or damaged area of the body. Currently, the stem cells are typically injected in suspension to an area without a specific or effective means to have them target and adhere to a particular location. Providing a immobilizing matrix and microenvironment in which to settle and grow while remaining immobilized to that are would be an advancement in the art. Cells can be encapsulated within a biomolecular gel according to the present invention. […] Using this method, hMSCs and other cell types can be encapsulated and positioned to a specific location in the body. For instance, a collagen gel encapsulating hMSCs can be formed and adhered in situ using blue light and riboflavin on the surface of a corneal wound, creating a “living reservoir” of therapeutic factors that are secreted by the immobilized hMSCs. The formed gel adheres to the target tissue due to crosslinks formed between the exogenously applied collagen and the collagen on the wound bed or target tissue which is shown by example in FIG. 9D.
# [2] = tested on: 2 mm corneal debridement wound; experiment: Rodent corneal debridement wound healing and ocular tolerance study; type: in vivo
# Experimental: FIGS. 13A-13D show results of EGF surface-coupling by V-CXL in a rodent corneal debridement animal model. A 2 mm corneal debridement was performed in three groups of two rodent eyes each (average corneal diameter=3 mm). Shown here are photographs of fluorescein-stained rodent eyes at 24 hours: EGF encapsulated within a collagen gel using riboflavin and blue light exposure for 5 seconds (FIG. 13A), EGF coupling directly to corneal stroma using riboflavin and blue light exposure for 5 seconds (FIG. 13B), topical EGF only (FIG. 13C), and no treatment (FIG. 13D). Slit lamp photos of the wounded and treated eyes are shown on the left, and fluorescein staining of the same eyes are shown on the right.
# Mouse corneas were subject to 2 mm diameter circular corneal debridement and then treated with (1) a collagen gel solution containing 0.01 mg/ml of EGF, and 0.1 mg/ml riboflavin and exposed to blue light (˜458 nm) for 5 seconds, (2) an aqueous EGF solution containing 0.01 mg/ml EGF and 0.1 mg/ml riboflavin and exposed to blue light for 5 seconds, (3) topical application of an aqueous solution of EGF alone at a concentration of 0.01 mg/mL, or (4) no treatment. The rodents were then examined at 24 hours and the wound areas examined by fluorescein staining.
# In vivo ocular tolerance and wound healing animal study: In an animal study in rodents, V-CXL was used to bind EGF to wounded corneas. Briefly, a 2 mm diameter debridement was performed, and the wound bed was treated topically with 0.025 mM of riboflavin mixed with 0.01 mg/mL of EGF delivered topically to the wound bed and allowed incubate for 10 minutes followed by 5 seconds of exposure to blue light (˜458 nm) at 60 mW/cm^2. The eye was then rinsed with BSS. Controls used were topical EGF alone and no treatment.
# [3] = tested on: primary rabbit corneal epithelial cells (CECs); experiment: Proliferation of corneal epithelial cells on EGF-bound collagen surfaces; type: cell-based; settings: over 5 days; EGF bound to collagen by V-CXL vs collagen without covalently linked EGF; both concentrations tested
# Experimental: Enhanced cell proliferation on growth factor fortified collagen gels. Late-passage primary rabbit corneal epithelial cells (CECs) of the same cell density were grown on surfaces with EGF bound to collagen using V-CXL as well as standard collagen-coated tissue-culture polystyrene without covalently linked EGF.
# [4] = EGF release from V-CXL collagen gels (ELISA); type: physicochemical; settings: 37° C., 2 to 120 hours
# Experimental: FIG. 9C summarizes the storage and loss modulus of collagen gels crosslinked using riboflavin and blue light exposure of different time intervals.
# Growth factor release. To understand the ability of growth factors to be liberated from crosslinked collagen, human recombinant EGF (Peprotech) was incorporated within collagen gels during gelation. A neutralized 3% collagen solution with 0.25 mM riboflavin was exposed to blue light (˜458 nm) at 60 mW/cm^2 for 20 seconds. The formed gel was then cut into cylindrical discs and placed in a PBS solution with or without 0.1% versus 0.2% collagenase at 37° C. on a shaker. The solution was then sampled at intervals starting at 2 hours to 120 hours. An ELISA kit was then used to evaluate the concentration of released EGF in the solution.
# NGF receptor = experiment: Ellipsometry of soluble NGF receptor binding to NGF-coupled collagen surfaces; settings: NGF photochemically coupled to collagen compared to physisorbed NGF
# From the text: V-CXL binds growth factors directly to collagen. V-CXL was used to bind EGF and NGF growth factors directly to collagen. Fluorometry (FIG. 3), surface plasmon resonance (FIG. 4), ellipsometry (FIG. 5), and ELISA (FIG. 6) were used to monitor and compare the chemical coupling versus physical adsorption of NGF and EGF to collagen surfaces. In these experiments, collagen was first chemically immobilized to either gold, glass, or polystyrene surfaces (depending on the method being used), followed by V-CXL-mediated coupling of either EGF or NGF (or their fluorescein-isothiocyanate (FITC)-labeled conjugates) to the collagen coating alone or physical adsorption of growth factor to collagen from aqueous solution.
# Exposure of NGF to blue light in the presence of riboflavin led to a step-increase in the layer thickness of the collagen-coated gold wafer.
compound,measurement,setting,value
Cc1cc2nc3c(=O)[nH]c(=O)nc-3n(C[C@H](O)[C@H](O)[C@H](O)CO)c2cc1C [riboflavin],% living hMSCs (viability),[1],greater than 90%
epidermal growth factor [EGF],wound area by fluorescein staining vs topical EGF alone or no treatment,"[2]; 24 hours, 0.01 mg/ml EGF, 0.1 mg/ml riboflavin, blue light (~458 nm) 5 seconds",smaller; also recorded: greater wound area reduction
same,reduction in wound area by fluorescein staining compared with controls,"[2]; 24 hours, EGF-coupled corneas (0.025 mM riboflavin, 0.01 mg/mL EGF, 5 s blue light) vs topical EGF alone and no treatment, n=2",greater reduction in wound area
same,wound area as % of the wound area in topical EGF-treated eyes,"[2]; 24 hours, V-CXL: 0.025 mM riboflavin + 0.01 mg/mL EGF, 5 seconds blue light (~458 nm) at 60 mW/cm^2, n=2, ImageJ analysis",approximately 50%
same,wound area as % of the wound area of untreated eyes,"[2]; 24 hours, V-CXL: 0.025 mM riboflavin + 0.01 mg/mL EGF, 5 seconds blue light at 60 mW/cm^2, n=2, ImageJ analysis",approximately 35%
same,"signs of ocular intolerance (conjunctival injection, swelling, discharge, corneal toxicity)",[2]; eyes treated with EGF and riboflavin in the V-CXL reaction,No signs of ocular intolerance
same,proliferation of senescent primary CECs,[3],greater proliferation
same,EGF release from collagen gel,[4]; 0.1% versus 0.2% collagenase in PBS,increases the release in a dose-dependent manner; also recorded: accelerated in a dose-dependent manner
same,EGF release from collagen gel,"[4]; PBS alone, 3% collagen, 0.25 mM riboflavin, blue light 60 mW/cm^2 20 seconds",relatively slow release and slow
nerve growth factor [NGF],NGF receptor binding (change in relative layer thickness),NGF receptor,higher amount of NGF receptor binding; also recorded: greater NGF binding
